Results published in US9724331B2, “Use of maleimide derivatives for preventing and treating leukemia” (CENTOGENE AG, priority 2012, dated 2017).
“Also recorded” adds a separate entry of the source.

Legend:
Type in all cases: cell-based, human
[1] = system: SEM cells; test: Metabolic activity, WST-1 assay
Protocol: (§1) The human B-ALL cell lines SEM, RS4;11 and the human T-ALL cell lines Jurkat and Molt-4 were purchased from DSMZ (Germany) and cultured according to manufacturer's protocol. The corresponding medium was supplemented with 10% heat-inactivated fetal bovine serum (PAA, Pasching, Austria) and 1% penicillin and streptomycin (Biochrom AG, Berlin, Germany). The Molt-4 cells were cultured with medium supplemented with 20% heat-inactivated fetal bovine serum. All cells were maintained at 37° C. in 5% CO2. Cells (5×10^5/well) were seeded in 24 well plates (Nunc, Langenselbold, Germany) and incubated for up to 72 h with PDA-66. Treated cells were harvested after 4, 24, 48 and 72 h and used for further analyses.
(§2) Cell counts were determined using the trypan blue staining. Metabolic activity was analyzed by using tetrazolium compound WST-1 (Roche, Mannheim, Germany). In brief, triplicates of cells (5×10^4/well) were seeded in 96 well plates, treated with PDA-66 and incubated with 15 μl WST-1 for up to 4 h. The mitochondrial dehydrogenases reduce WST-1 to soluble formazan and cause a change of color, which correlates with the amount of metabolically active cells. Absorbance at 450 nm and a reference wavelength at 620 nm were determined by an ELISA Reader (Anthos, Krefeld, Germany). The absorbance of culture medium with supplemented WST-1 in the absence of cells was used as background control.
(§3) The influence of PDA-66 on proliferation in ALL cell lines SEM, RS4;11, Jurkat and Molt-4 was analyzed by incubation with different concentrations of the drug (0.001 μM to 10 μM). Metabolic activity was determined using WST-1 assay. […] Results are summarized in FIG. 2, whereby the individual nine bars for each set of experiments represent, from left to right, DMSO, 0.001 μM, 0.01 μM, 0.1 μM, 0.25 μM, 0.5 μM, 1.0 μM, 5 μM and 10 μM. After 48 h of incubation an inhibition of proliferation could be observed, but was more distinct after 72 h.

[2] = system: Jurkat cells; test: Metabolic activity, WST-1 assay
Protocol: as §1, §2, §3

[3] = system: Molt-4 cells; test: Metabolic activity, WST-1 assay; settings: 0.5 μM PDA-66, 72 h, mean±SD
Protocol: as §1, §2, §3

[4] = system: RS4;11 cells; test: Metabolic activity, WST-1 assay; settings: 0.5 μM PDA-66, 72 h, mean±SD
Protocol: as §1, §2, §3

[5] = system: PI3K/Akt and Wnt/β-catenin pathway in RS4;11 cells; test: Western blot, PI3K/Akt and Wnt/β-catenin pathway; settings: incubation of 4 and 24 h
Protocol: (§4) After treatment with PDA-66 and DMSO, respectively, cells were lyzed and protein expression analyzed with Western blot.
(§5) Protein extraction and Western blot was performed as described above. Following polyclonal antibodies were used: rabbit anti-cleaved caspase 3, rabbit anti-caspase 3, rabbit anti-cleaved PARP, rabbit anti-PARP, rabbit anti-cleaved caspase 7, rabbit anti-caspase 7, rabbit anti-pAktThr308, rabbit anti-pAktSer473, rabbit anti-Akt, rabbit anti-β-catenin, rabbit anti-pGSK3βSer9, rabbit anti-GSK3β, rabbit anti-p4EBP-1Ser65 and rabbit anti-4EBP-1 (all Cell Signaling Frankfurt/Main, Germany). Blots were incubated with mouse anti-GAPDH antibody (Invitrogen, Carlsbad, USA) as loading control.

[6] = system: PI3K/Akt and Wnt/β-catenin pathway in Jurkat cells; test: Western blot, PI3K/Akt and Wnt/β-catenin pathway
Protocol: as §4, §5

[7] = system: PI3K/Akt and Wnt/β-catenin pathway in Molt-4 cells; test: Western blot, PI3K/Akt and Wnt/β-catenin pathway; settings: incubation of 4 and 24 h
Protocol: as §4, §5

[8] = system: SEM cells; test: Proliferation, cell counts by trypan blue staining
Protocol: as §1, §2, §3

[9] = system: Jurkat cells; test: Proliferation, cell counts by trypan blue staining
Protocol: as §1, §2, §3

[10] = system: Molt-4 cells; test: Proliferation, cell counts by trypan blue staining
Protocol: as §1, §2, §3

[11] = system: RS4;11 cells; test: Proliferation, cell counts by trypan blue staining
Protocol: as §1, §2, §3

[12] = system: SEM cells; test: Apoptosis and necrosis, Annexin V FITC / PI flow cytometry
Protocol: (§6) Apoptosis and necrosis were analyzed by staining the cells with Annexin V FITC (BD Biosciences, Heidelberg, Germany) and propidium iodide (PI) (Sigma Aldrich, St. Louis, USA). Results were assessed by flow cytometry.
(§7) (A) Cells were treated with PDA-66 for up to 72 h and stained with Annexin V FITC and Propidium iodide (PI). Rates of early apoptotic (FITC^+, PI^−) and late apoptotic and necrotic (FITC^+, PI^+) cells were measured by flow cytometry. Significant induction of apoptosis could be observed in all cell lines after 48 h of incubation as well as tendential induction of necrosis at both points of time. […] (B) Induction of apoptosis was confirmed by Western blot. Cells were treated with different concentrations of PDA-66 and total cell lysates (25 μg) were analyzed by Western blot to detect cleavage of Caspase 3, 7 and PARP. GAPDH was used as loading control.
(§8) More specifically, 5×10^5 cells were harvested and washed twice (180 g, 10 min, 4° C.) with PBS. After resuspending the cells in 100 μl of binding buffer (1×) 4 μl of Annexin V FITC were added and incubated for 15 min at room temperature. Following addition of 400 μl binding buffer for a final volume of 500 μl the cells were stained with PI (0.6 μg/ml) immediately before measurement. As controls unstained and single stained cells were included in each experiment. Measurements were performed using FACSCalibur (Becton and Dickinson, Heidelberg, Germany) and data analyses were carried out with CellQuest software (Becton and Dickinson, Heidelberg, Germany).

[13] = system: Jurkat cells; test: as above
Protocol: as §6, §7, §8

[14] = system: Molt-4 cells; test: as above
Protocol: as §6, §7, §8

[15] = system: RS4;11 cells; test: as above
Protocol: as §6, §7, §8

[16] = 0.5 μM PDA-66, 72 h, vs. DMSO control
[17] = 0.5 μM or more, seeded cells 5×10^5

IC50 ([2]; Homo sapiens, Jurkat cells, 72 h of incubation): 1280 nM
SMILES: CC(=O)c1ccc(C2=C(c3c(C)[nH]c4ccccc34)C(=O)N(C)C2=O)cc1 [PDA-66, 3-(4-Acetylphenyl)-1-methyl-4-(2-methyl-1H-indol-3-yl)-1H-pyrrole-2,5-dione]
IC50 ([1]; Homo sapiens, SEM cells, 72 h of incubation): 410 nM
metabolic activity compared to control cells treated with DMSO ([1]; SEM, 0.5 μM PDA-66, 72 h, mean±SD): 35.7±8.3%
metabolic activity compared to control cells treated with DMSO ([2]; Jurkat, 0.5 μM PDA-66, 72 h, mean±SD): 66.7±8%
metabolic activity compared to control cells treated with DMSO [3]: 35.5±17%
metabolic activity compared to control cells treated with DMSO [4]: 33.3±4.4%
expression of p4EBP-1Ser65 [5]: decrease
expression of total 4EBP-1 [5]: decrease
expression of p4EBP-1Ser65 ([6]; incubation of 4 and 24 h): decrease
expression of total 4EBP-1 ([6]; incubation of 4 and 24 h): decrease
pAktSer473 ([6]; incubation of 24 h): not confirmed by a rise
pAktThr308 ([6]; incubation of 24 h): increase
expression of p4EBP-1Ser65 [7]: increased expression; also recorded: increase
inhibition of proliferation [8, 16]: significant inhibition
cell numbers [8, 17]: decrease in cell numbers i.e. below the amount of seeded cells
inhibition of proliferation [9, 16]: significant inhibition
cell numbers [9, 17]: decrease in cell numbers i.e. below the amount of seeded cells
inhibition of proliferation [10, 16]: significant inhibition
cell numbers [10, 17]: decrease in cell numbers i.e. below the amount of seeded cells
inhibition of proliferation [11, 16]: significant inhibition
cell numbers [11, 17]: decrease in cell numbers i.e. below the amount of seeded cells
necrosis ([12]; 1 μM PDA-66, 48 h): tendential increase
apoptosis (early apoptotic cells, FITC+, PI−) ([12]; 1 μM PDA-66, 48 h, mean±SD): 10.5±1.3%
apoptosis (early apoptotic cells, FITC+, PI−) ([12]; 1 μM PDA-66, 72 h, mean±SD): 5.6±1.6%
necrosis rate (late apoptotic and necrotic cells, FITC+, PI+) ([12]; 1 μM PDA-66, 72 h, mean±SD): 27.8±5.81%
necrosis ([13]; 1 μM PDA-66, 48 h): tendential increase
apoptosis (early apoptotic cells, FITC+, PI−) ([13]; 1 μM PDA-66, 48 h, mean±SD): 8.3±1.9%
apoptosis (early apoptotic cells, FITC+, PI−) ([13]; 1 μM PDA-66, 72 h, mean±SD): 6.1±0.7%
necrosis rate (late apoptotic and necrotic cells, FITC+, PI+) ([13]; 1 μM PDA-66, 72 h, mean±SD): 28.0±13.4%
necrosis ([14]; 1 μM PDA-66, 48 h): tendential increase
apoptosis (early apoptotic cells, FITC+, PI−) ([14]; 1 μM PDA-66, 48 h, mean±SD): 16.3±5.1%
apoptosis (early apoptotic cells, FITC+, PI−) ([14]; 1 μM PDA-66, 72 h, mean±SD): 20.1±6.6%
necrosis rate (late apoptotic and necrotic cells, FITC+, PI+) ([14]; 1 μM PDA-66, 72 h, mean±SD): 46.7±15.6%
necrosis ([15]; 1 μM PDA-66, 48 h): tendential increase
apoptosis (early apoptotic cells, FITC+, PI−) ([15]; 1 μM PDA-66, 48 h, mean±SD): 7.4±1.1%
apoptosis (early apoptotic cells, FITC+, PI−) ([15]; 1 μM PDA-66, 72 h, mean±SD): 6.4±3.6%
necrosis rate (late apoptotic and necrotic cells, FITC+, PI+) ([15]; 1 μM PDA-66, 72 h, mean±SD): 26.5±10.2%
